Calls of active or inactive are those of the source. No rule for the calls is given here.

In this series the test system is CCRIS mutagenicity, Ames/micronucleus/aberration tests. The experiment in a line: CCRIS mutagenicity studies.
The mark [1] stands for this setting: Test System: AMES SALMONELLA TYPHIMURIUM, Strain/Indicator: TA98, Metabolic Activation: NONE, Method: STANDARD PLATE.
The mark [2] stands for this setting: Test System: AMES SALMONELLA TYPHIMURIUM, Strain/Indicator: TA100, Metabolic Activation: NONE, Method: STANDARD PLATE.
[3] abbreviates: Test System: AMES SALMONELLA TYPHIMURIUM, Strain/Indicator: TA102, Metabolic Activation: NONE, Method: STANDARD PLATE.
Where [4] appears, read: Test System: AMES SALMONELLA TYPHIMURIUM, Strain/Indicator: TA98, Metabolic Activation: HAMSTER, LIVER, S-9, AROCLOR 1254 (10%), Method: PREINCUBATION
The mark [5] stands for this setting: Test System: AMES SALMONELLA TYPHIMURIUM, Strain/Indicator: TA98, Metabolic Activation: NONE, Method: PREINCUBATION
The mark [6] stands for this setting: Test System: AMES SALMONELLA TYPHIMURIUM, Strain/Indicator: TA98, Metabolic Activation: RAT, LIVER, S-9, AROCLOR 1254 (10%), Method: PREINCUBATION
Setting [7] is: Test System: AMES SALMONELLA TYPHIMURIUM, Strain/Indicator: TA98, Metabolic Activation: S-9, Method: PREINCUBATION
[8] abbreviates: Test System: AMES SALMONELLA TYPHIMURIUM, Strain/Indicator: TA100, Metabolic Activation: HAMSTER, LIVER, S-9, AROCLOR 1254 (10%), Method: PREINCUBATION
Where [9] appears, read: Test System: AMES SALMONELLA TYPHIMURIUM, Strain/Indicator: TA100, Metabolic Activation: NONE, Method: PREINCUBATION
The mark [10] stands for this setting: Test System: AMES SALMONELLA TYPHIMURIUM, Strain/Indicator: TA100, Metabolic Activation: RAT, LIVER, S-9, AROCLOR 1254 (10%), Method: PREINCUBATION
[11] abbreviates: Test System: AMES SALMONELLA TYPHIMURIUM, Strain/Indicator: TA1535, Metabolic Activation: HAMSTER, LIVER, S-9, AROCLOR 1254 (10%), Method: PREINCUBATION
Where [12] appears, read: Test System: AMES SALMONELLA TYPHIMURIUM, Strain/Indicator: TA1535, Metabolic Activation: NONE, Method: PREINCUBATION
The mark [13] stands for this setting: Test System: AMES SALMONELLA TYPHIMURIUM, Strain/Indicator: TA1535, Metabolic Activation: RAT, LIVER, S-9, AROCLOR 1254 (10%), Method: PREINCUBATION
The mark [14] stands for this setting: Test System: AMES SALMONELLA TYPHIMURIUM, Strain/Indicator: TA1537, Metabolic Activation: HAMSTER, LIVER, S-9, AROCLOR 1254 (10%), Method: PREINCUBATION
Setting [15] is: Test System: AMES SALMONELLA TYPHIMURIUM, Strain/Indicator: TA1537, Metabolic Activation: NONE, Method: PREINCUBATION
Setting [16] is: Test System: AMES SALMONELLA TYPHIMURIUM, Strain/Indicator: TA1537, Metabolic Activation: RAT, LIVER, S-9, AROCLOR 1254 (10%), Method: PREINCUBATION

As to `Cc1cc(C)c(C)cc1C`, the mutagenic call is “inactive; negative” (Test System: AMES SALMONELLA TYPHIMURIUM, Strain/Indicator: TA97A, Metabolic Activation: NONE, Method: STANDARD PLATE); “inactive; negative” (Test System: AMES SALMONELLA TYPHIMURIUM, Strain/Indicator: TA97A, Metabolic Activation: RAT LIVER S-9, AROCLOR 1254, Method: STANDARD PLATE); “inactive; negative” under setting [1]; “inactive; negative” (Test System: AMES SALMONELLA TYPHIMURIUM, Strain/Indicator: TA98, Metabolic Activation: RAT LIVER S-9, AROCLOR 1254, Method: STANDARD PLATE); “inactive; negative” under setting [2]; “inactive; negative” (Test System: AMES SALMONELLA TYPHIMURIUM, Strain/Indicator: TA100, Metabolic Activation: RAT LIVER S-9, AROCLOR 1254, Method: STANDARD PLATE). The mutagenic call reads like this: under setting [3], “inactive; negative”; (Test System: AMES SALMONELLA TYPHIMURIUM, Strain/Indicator: TA102, Metabolic Activation: RAT LIVER S-9, AROCLOR 1254, Method: STANDARD PLATE) “inactive; negative”.

Take `O=c1[nH]cc(F)c(=O)[nH]1`: the mutagenic call is, setting by setting: (End Point: IN VITRO MICRONUCLEUS, Test System: CHL/IU CELLS, Metabolic Activation: NONE) “active; positive”; (End Point: IN VIVO CHROMOSOMAL ABERRATIONS, Test System: BONE MARROW CELLS, Species: MOUSE, Strain/Sex: SWISS/MALE, FEMALE, Route: IP) “active; positive (aberrant metaphases)”; (End Point: IN VIVO MICRONUCLEUS, Test System: BLOOD ERYTHROCYTES, Species: MOUSE, Strain/Sex: CD-1/MALE, Route: INTRAPERITONEAL INJECTION) “active; positive (at highest dose)”; (End Point: IN VIVO MICRONUCLEUS, Test System: BONE MARROW POLYCHROMATIC ERYTHROCYTES, Species: MOUSE, Strain/Sex: SWISS/MALE, FEMALE, Route: IP) “active; positive”; (End Point: In vitro micronucleus, Test System: Human lymphoblastoid TK6 cells, Metabolic Activation: None) “active; positive (p<0.001)”; (End Point: In vivo micronucleus, Test System: Micronucleated hepatocytes, Species: Rat, Strain/Sex: F344/Male, Route: Intraperitoneal) “inactive; negative”. Moreover, the mutagenic call under setting [4] was “inactive; negative”; the mutagenic call under setting [5] was “inactive; negative”; the mutagenic call under setting [1] is “inactive; negative”; the mutagenic call under setting [6] was “inactive; negative”; the mutagenic call under setting [7] was “inactive; negative”; the mutagenic call (Test System: AMES SALMONELLA TYPHIMURIUM, Strain/Indicator: TA98, Metabolic Activation: S-9, Method: STANDARD PLATE) was “inactive; negative”. The mutagenic call by setting is: under setting [8], “inactive; negative”; under setting [9], “inactive; negative”; under setting [2], “inactive; negative”; under setting [10], “inactive; negative”; (Test System: AMES SALMONELLA TYPHIMURIUM, Strain/Indicator: TA100, Metabolic Activation: S-9, Method: PREINCUBATION) “inactive; negative”; (Test System: AMES SALMONELLA TYPHIMURIUM, Strain/Indicator: TA100, Metabolic Activation: S-9, Method: STANDARD PLATE) “inactive; negative”. Also, the mutagenic call under setting [3] is “inactive; negative”; the mutagenic call under setting [11] is “inactive; negative”; the mutagenic call under setting [12] was “inactive; negative”; the mutagenic call under setting [13] was “inactive; negative”; the mutagenic call under setting [14] was “inactive; negative”; the mutagenic call under setting [15] was “inactive; negative”. Further, the mutagenic call was “inactive; negative” (Test System: AMES SALMONELLA TYPHIMURIUM, Strain/Indicator: TA1537, Metabolic Activation: NONE, Method: STANDARD PLATE); “inactive; negative” under setting [16]; “inactive; negative” (Test System: AMES SALMONELLA TYPHIMURIUM, Strain/Indicator: TA2638, Metabolic Activation: NONE, Method: STANDARD PLATE); “inactive; negative” (Test System: E. COLI, Strain/Indicator: WP2 (HCR), Metabolic Activation: NONE, Method: STANDARD PLATE); “inactive; negative” (Test System: E. COLI, Strain/Indicator: WP2 (HCR), Metabolic Activation: S-9, Method: STANDARD PLATE); “inactive; negative” (Test System: E. COLI, Strain/Indicator: WP2 (PKM101), Metabolic Activation: NONE, Method: STANDARD PLATE). Moreover, the mutagenic call runs as follows: (Test System: E. COLI, Strain/Indicator: WP2 UVRA (PKM101), Metabolic Activation: NONE, Method: STANDARD PLATE) “inactive; negative”; (Test System: MOUSE LYMPHOMA, Strain/Indicator: L5178Y (TK+/TK-), Metabolic Activation: NONE, Method: MICROWELL) “active; positive”; (Test System: MOUSE LYMPHOMA, Strain/Indicator: L5178Y (TK+/TK-), Metabolic Activation: S-9, Method: MICROWELL) “active; positive”.

As to `[O]=[Cr][O][Cr]=[O]`, for the setting “Test System: CHINESE HAMSTER V-79, Strain/Indicator: V-79/6-THIOGUANINE, Metabolic Activation: NONE”, the mutagenic call was “active; positive”.

Take `Nc1ccccc1C(=O)O`: the mutagenic call under setting [4] was “inactive; negative”; the mutagenic call under setting [5] is “inactive; negative”; the mutagenic call under setting [6] is “inactive; negative”; the mutagenic call under setting [8] was “inactive; negative”; the mutagenic call under setting [9] is “inactive; negative”; the mutagenic call under setting [10] was “inactive; negative”. In addition, the mutagenic call runs as follows: under setting [11], “inactive; negative”; under setting [12], “inactive; negative”; under setting [13], “inactive; negative”; under setting [14], “inactive; negative”; under setting [15], “inactive; negative”; under setting [16], “inactive; negative”. The mutagenic call is “inactive; negative” (Test System: CHINESE HAMSTER OVARY, Strain/Indicator: CHO-K1-BH4 (HGPRT)/6-THIOGUANINE, Metabolic Activation: NONE); “inactive; negative” (Test System: CHINESE HAMSTER OVARY, Strain/Indicator: CHO-K1-BH4 (HGPRT)/6-THIOGUANINE, Metabolic Activation: S-9); “active; positive” (Test System: MOUSE LYMPHOMA, Strain/Indicator: L5178Y (TK+/TK-), Metabolic Activation: RAT, LIVER, S-9, AROCLOR 1254, Method: SUSPENSION/PLATE); “inactive; negative” (Test System: Mouse lymphoma, Strain/Indicator: L5178Y (tk+/tk-), Metabolic Activation: None, Method: Suspension/plate); “active; positive” (Test System: Mouse lymphoma, Strain/Indicator: L5178Y (tk+/tk-), Metabolic Activation: Rat, Liver, S-9, Aroclor 1254, Method: Suspension/plate).

In the case of `O=[N+]([O-])c1ccc2c(c1)C(O)c1ccccc1-2` (stereo unspecified), the mutagenic call by setting is: under setting [5], “active; positive”; under setting [7], “active; positive”.

These data come from PubChem BioAssay AID1259407 (Chemical Carcinogenesis Research Information System (CCRIS), 2018).
